Measured values: PubChem BioAssay AID248 (DTP/NCI, 2004)
Inconclusive results and toxic doses are left out. Rule as the data show it: active = T/C of 150% or more; inactive = T/C below 125%.

Tested on: L1210 leukemia ip in BDF1 mice, survival T/C
Test: NCI In Vivo Anticancer Drug Screen. Data for tumor model L1210 Leukemia (intraperitoneal) in B6D2F1 (BDF1) mice
Conditions: endpoint: mean survival time, higher = longer survival
Summary of the method: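 Antitumor effect is assessed in tumor-bearing animals. Survival in the compound arm is compared with a vehicle-dosed control arm and expressed as their quotient.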

[1] = dose: 100.0 mg/kg/injection, schedule: Q04DX003 (ip), vehicle: saline
[2] = dose: 50.0 mg/kg/injection, schedule: Q01DX001 (ip), vehicle: carboxymethylcellulose (CMC)
[3] = dose: 100.0 mg/kg/injection, schedule: Q01DX001 (ip), vehicle: carboxymethylcellulose (CMC)
[4] = dose: 200.0 mg/kg/injection, schedule: Q01DX001 (ip), vehicle: carboxymethylcellulose (CMC)
[5] = dose: 400.0 mg/kg/injection, schedule: Q01DX001 (ip), vehicle: carboxymethylcellulose (CMC)
[6] = dose: 100.0 mg/kg/injection, schedule: Q04DX003 (ip), vehicle: Klucel (hydroxypropylcellulose) (HPC)
[7] = dose: 200.0 mg/kg/injection, schedule: Q04DX003 (ip), vehicle: Klucel (hydroxypropylcellulose) (HPC)
[8] = dose: 400.0 mg/kg/injection, schedule: Q04DX003 (ip), vehicle: Klucel (hydroxypropylcellulose) (HPC)

Measured: T/C

O=C(CC(C(=O)c1ccccc1)N1CC1)c1ccccc1 (centres undefined)
inactive: dose: 50.0 mg/kg/injection, schedule: Q01DX009 (ip), vehicle: saline sonified 91 % of control | dose: 50.0 mg/kg/injection, schedule: Q04DX003 (ip), vehicle: saline sonified 96 % of control | dose: 100.0 mg/kg/injection, schedule: Q01DX009 (ip), vehicle: saline sonified 94 % of control | dose: 100.0 mg/kg/injection, schedule: Q04DX003 (ip), vehicle: saline sonified 92 % of control | dose: 200.0 mg/kg/injection, schedule: Q04DX003 (ip), vehicle: saline sonified 97 % of control

CN(C)c1ccc(N=Cc2cc[n+](C)cc2)cc1
inactive: dose: 25.0 mg/kg/injection, schedule: Q01DX009 (ip), vehicle: saline 92 % of control | dose: 50.0 mg/kg/injection, schedule: Q01DX009 (ip), vehicle: saline 100 % of control | [1] 87 % of control

O=C1CCCCC1c1ccccc1 (centres undefined)
inactive: dose: 50.0 mg/kg/injection, schedule: Q04DX002 (ip), vehicle: other 99 % of control | dose: 100.0 mg/kg/injection, schedule: Q04DX002 (ip), vehicle: other 92 % of control | dose: 100.0 mg/kg/injection, schedule: Q04DX003 (ip), vehicle: other 96 % of control | dose: 200.0 mg/kg/injection, schedule: Q04DX002 (ip), vehicle: other 108 % of control | dose: 200.0 mg/kg/injection, schedule: Q04DX003 (ip), vehicle: other 95 % of control | dose: 400.0 mg/kg/injection, schedule: Q04DX002 (ip), vehicle: other 99 % of control | dose: 400.0 mg/kg/injection, schedule: Q04DX003 (ip), vehicle: other 98 % of control

COc1ccc(/C=C/c2ccc3ccccc3[n+]2C)c(OC)c1OC
inactive: dose: 5.0 mg/kg/injection, schedule: Q01DX009 (oral), vehicle: carboxymethylcellulose (CMC) 104 % of control | dose: 5.0 mg/kg/injection, schedule: Q04DX003 (ip), vehicle: saline with Tween-80 106 % of control | dose: 10.0 mg/kg/injection, schedule: Q01DX009 (oral), vehicle: carboxymethylcellulose (CMC) 98 % of control | dose: 10.0 mg/kg/injection, schedule: Q04DX003 (ip), vehicle: saline with Tween-80 114 % of control | dose: 20.0 mg/kg/injection, schedule: Q01DX009 (oral), vehicle: carboxymethylcellulose (CMC) 106 % of control | dose: 20.0 mg/kg/injection, schedule: Q04DX003 (ip), vehicle: saline with Tween-80 108 % of control | dose: 40.0 mg/kg/injection, schedule: Q01DX009 (oral), vehicle: carboxymethylcellulose (CMC) 109 % of control | dose: 80.0 mg/kg/injection, schedule: Q01DX009 (oral), vehicle: carboxymethylcellulose (CMC) 97 % of control

Cc1nc(C)c(C(=O)N/N=C/c2ccc(N(CCCl)CCCl)cc2)s1
inactive: [2] 94 % of control | [3] 94 % of control | [4] 97 % of control | [5] 94 % of control

Oc1ccccc1C=NC1CCCCC1.Oc1ccccc1C=NC1CCCCC1.[Ni+2]
inactive: [6] 96 % of control | [1] 94 % of control | [7] 92 % of control | dose: 200.0 mg/kg/injection, schedule: Q04DX003 (ip), vehicle: saline 96 % of control | [8] 90 % of control

NC(=O)C1C(=O)OC2(CCCC2)C1c1ccccc1 (centres undefined)
inactive: [6] 101 % of control | [7] 93 % of control | [8] 97 % of control

Nc1ccc(S(=O)(=O)Nc2ccc([N+](=O)[O-])cn2)cc1
inactive: dose: 100.0 mg/kg/injection, schedule: Q01DX001 (ip), vehicle: saline 101 % of control | dose: 200.0 mg/kg/injection, schedule: Q01DX001 (ip), vehicle: saline 104 % of control | dose: 400.0 mg/kg/injection, schedule: Q01DX001 (ip), vehicle: saline 98 % of control

CC(C)(C)c1cc(O)cc(C(C)(C)C)c1
inactive: dose: 100.0 mg/kg/injection, schedule: Q04DX002 (ip), vehicle: saline with Tween-80 100 % of control | dose: 200.0 mg/kg/injection, schedule: Q04DX002 (ip), vehicle: saline with Tween-80 97 % of control | dose: 400.0 mg/kg/injection, schedule: Q04DX002 (ip), vehicle: saline with Tween-80 100 % of control

COc1ccccc1C[N+](C)(C)C
inactive: dose: 20.0 mg/kg/injection, schedule: Q01DX001 (ip), vehicle: saline 95 % of control | dose: 20.0 mg/kg/injection, schedule: Q01DX009 (ip), vehicle: saline 108 % of control | dose: 40.0 mg/kg/injection, schedule: Q01DX001 (ip), vehicle: saline 97 % of control | dose: 40.0 mg/kg/injection, schedule: Q01DX009 (ip), vehicle: saline 108 % of control | dose: 80.0 mg/kg/injection, schedule: Q01DX001 (ip), vehicle: saline 102 % of control

CCN(CC)C(=O)CBr
inactive: dose: 50.0 mg/kg/injection, schedule: Q01DX001 (ip), vehicle: Klucel (hydroxypropylcellulose) (HPC) 99 % of control | dose: 100.0 mg/kg/injection, schedule: Q01DX001 (ip), vehicle: Klucel (hydroxypropylcellulose) (HPC) 99 % of control | dose: 200.0 mg/kg/injection, schedule: Q01DX001 (ip), vehicle: Klucel (hydroxypropylcellulose) (HPC) 97 % of control

O=C1C2C(C(=O)N1c1ccccc1)C1c3ccccc3C2C2CCCCN21 (centres undefined)
inactive: dose: 25.0 mg/kg/injection, schedule: Q01DX009 (ip), vehicle: Klucel (hydroxypropylcellulose) (HPC) 102 % of control | dose: 50.0 mg/kg/injection, schedule: Q01DX009 (ip), vehicle: Klucel (hydroxypropylcellulose) (HPC) 105 % of control | dose: 100.0 mg/kg/injection, schedule: Q01DX009 (ip), vehicle: Klucel (hydroxypropylcellulose) (HPC) 92 % of control | [6] 92 % of control

Nc1ccc(C(=O)N/N=C\c2cccc3ccccc23)cc1
inactive: dose: 100.0 mg/kg/injection, schedule: Q04DX002 (ip), vehicle: Klucel (hydroxypropylcellulose) (HPC) 97 % of control | dose: 200.0 mg/kg/injection, schedule: Q04DX002 (ip), vehicle: Klucel (hydroxypropylcellulose) (HPC) 90 % of control | dose: 400.0 mg/kg/injection, schedule: Q04DX002 (ip), vehicle: Klucel (hydroxypropylcellulose) (HPC) 93 % of control

Ic1ccc(N=Cc2cccs2)cc1
inactive: [2] 100 % of control | [3] 94 % of control | [4] 92 % of control | [5] 94 % of control

CCC1(O)CC2CN(CCc3c([nH]c4ccccc34)C(C(=O)OC)(c3cc4c(cc3OC)N(C)C3C(O)(C(N)=O)C(O)C5(CC)C=CCN6CCC43C65)C2)C1 (centres undefined) (tested in a mixture with another compound)
inactive: dose: 0.43 mg/kg/injection, schedule: Q01DX009 (ip), vehicle: saline 124 % of control | dose: 1.2 mg/kg/injection, schedule: Q01DX009 (ip), vehicle: saline 97 % of control | dose: 648.0 micrograms/kg/injection, schedule: Q04DX003 (ip), vehicle: saline 123 % of control | dose: 5000.0 micrograms/kg/injection, schedule: Q04DX003 (ip), vehicle: saline 111 % of control
